# From PubChem BioAssay AID1259407 (Chemical Carcinogenesis Research Information System (CCRIS), 2018)
# The source made the active and inactive calls. How the calls were made is not given here.
# Test system: CCRIS mutagenicity, Ames/micronucleus/aberration tests
# Experiment: CCRIS mutagenicity studies
# [1] = Test System: AMES SALMONELLA TYPHIMURIUM, Strain/Indicator: TA98, Metabolic Activation: NONE, Method: PREINCUBATION
# [2] = Test System: AMES SALMONELLA TYPHIMURIUM, Strain/Indicator: TA100, Metabolic Activation: NONE, Method: PREINCUBATION
# [3] = Test System: AMES SALMONELLA TYPHIMURIUM, Strain/Indicator: TA1535, Metabolic Activation: NONE, Method: PREINCUBATION
# [4] = Test System: AMES SALMONELLA TYPHIMURIUM, Strain/Indicator: TA1537, Metabolic Activation: NONE, Method: PREINCUBATION
smiles,measurement,setting,value
NCC(=O)O,mutagenic call,"Test System: AMES SALMONELLA TYPHIMURIUM, Strain/Indicator: TA97, Metabolic Activation: NONE, Method: PREINCUBATION",inactive; negative
same,mutagenic call,"Test System: AMES SALMONELLA TYPHIMURIUM, Strain/Indicator: TA97, Metabolic Activation: RAT, LIVER, S-9, AROCLOR 1254, Method: PREINCUBATION",inactive; negative
same,mutagenic call,"Test System: AMES SALMONELLA TYPHIMURIUM, Strain/Indicator: TA98, Metabolic Activation: HAMSTER, LIVER, S-9, AROCLOR 1254, Method: PREINCUBATION",inactive; negative
same,mutagenic call,[1],inactive; negative
same,mutagenic call,"Test System: AMES SALMONELLA TYPHIMURIUM, Strain/Indicator: TA98, Metabolic Activation: NONE, Method: STANDARD PLATE",inactive; negative
same,mutagenic call,"Test System: AMES SALMONELLA TYPHIMURIUM, Strain/Indicator: TA98, Metabolic Activation: RAT, LIVER, S-9, AROCLOR 1254, Method: PREINCUBATION",inactive; negative
same,mutagenic call,"Test System: AMES SALMONELLA TYPHIMURIUM, Strain/Indicator: TA98, Metabolic Activation: RAT, LIVER, S-9, AROCLOR 1254, Method: STANDARD PLATE",inactive; negative
same,mutagenic call,"Test System: AMES SALMONELLA TYPHIMURIUM, Strain/Indicator: TA100, Metabolic Activation: HAMSTER, LIVER, S-9, AROCLOR 1254, Method: PREINCUBATION",inactive; negative
same,mutagenic call,[2],inactive; negative
same,mutagenic call,"Test System: AMES SALMONELLA TYPHIMURIUM, Strain/Indicator: TA100, Metabolic Activation: NONE, Method: STANDARD PLATE",inactive; negative
same,mutagenic call,"Test System: AMES SALMONELLA TYPHIMURIUM, Strain/Indicator: TA100, Metabolic Activation: RAT, LIVER, S-9, AROCLOR 1254, Method: PREINCUBATION",inactive; negative
same,mutagenic call,"Test System: AMES SALMONELLA TYPHIMURIUM, Strain/Indicator: TA100, Metabolic Activation: RAT, LIVER, S-9, AROCLOR 1254, Method: STANDARD PLATE",inactive; negative
same,mutagenic call,"Test System: AMES SALMONELLA TYPHIMURIUM, Strain/Indicator: TA102, Metabolic Activation: NONE, Method: PREINCUBATION",inactive; negative
same,mutagenic call,"Test System: AMES SALMONELLA TYPHIMURIUM, Strain/Indicator: TA102, Metabolic Activation: RAT, LIVER, S-9, AROCLOR 1254, Method: PREINCUBATION",inactive; negative
same,mutagenic call,"Test System: AMES SALMONELLA TYPHIMURIUM, Strain/Indicator: TA1535, Metabolic Activation: HAMSTER, LIVER, S-9, AROCLOR 1254, Method: PREINCUBATION",inactive; negative
same,mutagenic call,[3],inactive; negative
same,mutagenic call,"Test System: AMES SALMONELLA TYPHIMURIUM, Strain/Indicator: TA1535, Metabolic Activation: NONE, Method: STANDARD PLATE",inactive; negative
same,mutagenic call,"Test System: AMES SALMONELLA TYPHIMURIUM, Strain/Indicator: TA1535, Metabolic Activation: RAT, LIVER, S-9, AROCLOR 1254, Method: PREINCUBATION",inactive; negative
same,mutagenic call,"Test System: AMES SALMONELLA TYPHIMURIUM, Strain/Indicator: TA1535, Metabolic Activation: RAT, LIVER, S-9, AROCLOR 1254, Method: STANDARD PLATE",inactive; negative
same,mutagenic call,"Test System: AMES SALMONELLA TYPHIMURIUM, Strain/Indicator: TA1537, Metabolic Activation: HAMSTER, LIVER, S-9, AROCLOR 1254, Method: PREINCUBATION",inactive; negative
same,mutagenic call,[4],inactive; negative
same,mutagenic call,"Test System: AMES SALMONELLA TYPHIMURIUM, Strain/Indicator: TA1537, Metabolic Activation: NONE, Method: STANDARD PLATE",inactive; negative
same,mutagenic call,"Test System: AMES SALMONELLA TYPHIMURIUM, Strain/Indicator: TA1537, Metabolic Activation: RAT, LIVER, S-9, AROCLOR 1254, Method: PREINCUBATION",inactive; negative
same,mutagenic call,"Test System: AMES SALMONELLA TYPHIMURIUM, Strain/Indicator: TA1537, Metabolic Activation: RAT, LIVER, S-9, AROCLOR 1254, Method: STANDARD PLATE",inactive; negative
same,mutagenic call,"Test System: AMES SALMONELLA TYPHIMURIUM, Strain/Indicator: TA1538, Metabolic Activation: NONE, Method: STANDARD PLATE",inactive; negative
same,mutagenic call,"Test System: AMES SALMONELLA TYPHIMURIUM, Strain/Indicator: TA1538, Metabolic Activation: RAT, LIVER, S-9, AROCLOR 1254, Method: STANDARD PLATE",inactive; negative
same,mutagenic call,"Test System: MOUSE LYMPHOMA, Strain/Indicator: L5178Y (TK+/TK-), Metabolic Activation: NONE",inactive; negative
same,mutagenic call,"Test System: MOUSE LYMPHOMA, Strain/Indicator: L5178Y (TK+/TK-), Metabolic Activation: RAT, LIVER, S-9, AROCLOR 1254",inactive; negative
same,mutagenic call,"Test System: MOUSE LYMPHOMA, Strain/Indicator: L5178Y (TK+/TK-), Metabolic Activation: RAT, LIVER, S-9, AROCLOR 1254, Method: SUSPENSION/PLATE",inactive; negative. reevaluation of results: inconclusive
same,mutagenic call,"Test System: Mouse lymphoma, Strain/Indicator: L5178Y (tk+/tk-), Metabolic Activation: None, Method: Suspension/plate",active; inconclusive (previous evaluation positive)
same,mutagenic call,"Test System: UDS RAT PRIMARY HEPATOCYTES, Metabolic Activation: NONE",inactive; negative
C1=CC2C3C=CC(C3)C2C1 (centres undefined),mutagenic call,"Test System: AMES SALMONELLA TYPHIMURIUM, Strain/Indicator: TA98, Metabolic Activation: HAMSTER, LIVER, S-9, AROCLOR 1254 (10%), Method: PREINCUBATION",inactive; negative
same,mutagenic call,[1],inactive; negative
same,mutagenic call,"Test System: AMES SALMONELLA TYPHIMURIUM, Strain/Indicator: TA98, Metabolic Activation: RAT LIVER S-9, PHENOBARBITAL AND BETA-NAPHTHOFLAVONE, Method: PREINCUBATION",inactive; negative
same,mutagenic call,"Test System: AMES SALMONELLA TYPHIMURIUM, Strain/Indicator: TA98, Metabolic Activation: RAT, LIVER, S-9, AROCLOR 1254 (10%), Method: PREINCUBATION",inactive; negative
same,mutagenic call,"Test System: AMES SALMONELLA TYPHIMURIUM, Strain/Indicator: TA100, Metabolic Activation: HAMSTER, LIVER, S-9, AROCLOR 1254 (10%), Method: PREINCUBATION",inactive; negative
same,mutagenic call,[2],inactive; negative
same,mutagenic call,"Test System: AMES SALMONELLA TYPHIMURIUM, Strain/Indicator: TA100, Metabolic Activation: RAT LIVER S-9, PHENOBARBITAL AND BETA-NAPHTHOFLAVONE, Method: PREINCUBATION",inactive; negative
same,mutagenic call,"Test System: AMES SALMONELLA TYPHIMURIUM, Strain/Indicator: TA100, Metabolic Activation: RAT, LIVER, S-9, AROCLOR 1254 (10%), Method: PREINCUBATION",inactive; negative
same,mutagenic call,"Test System: AMES SALMONELLA TYPHIMURIUM, Strain/Indicator: TA1535, Metabolic Activation: HAMSTER, LIVER, S-9, AROCLOR 1254 (10%), Method: PREINCUBATION",inactive; negative
same,mutagenic call,[3],inactive; negative
same,mutagenic call,"Test System: AMES SALMONELLA TYPHIMURIUM, Strain/Indicator: TA1535, Metabolic Activation: RAT LIVER S-9, PHENOBARBITAL AND BETA-NAPHTHOFLAVONE, Method: PREINCUBATION",inactive; negative
same,mutagenic call,"Test System: AMES SALMONELLA TYPHIMURIUM, Strain/Indicator: TA1535, Metabolic Activation: RAT, LIVER, S-9, AROCLOR 1254 (10%), Method: PREINCUBATION",inactive; negative
same,mutagenic call,"Test System: AMES SALMONELLA TYPHIMURIUM, Strain/Indicator: TA1537, Metabolic Activation: HAMSTER, LIVER, S-9, AROCLOR 1254 (10%), Method: PREINCUBATION",inactive; negative
same,mutagenic call,[4],inactive; negative
same,mutagenic call,"Test System: AMES SALMONELLA TYPHIMURIUM, Strain/Indicator: TA1537, Metabolic Activation: RAT LIVER S-9, PHENOBARBITAL AND BETA-NAPHTHOFLAVONE, Method: PREINCUBATION",inactive; negative
same,mutagenic call,"Test System: AMES SALMONELLA TYPHIMURIUM, Strain/Indicator: TA1537, Metabolic Activation: RAT, LIVER, S-9, AROCLOR 1254 (10%), Method: PREINCUBATION",inactive; negative
same,mutagenic call,"Test System: E.COLI, Strain/Indicator: WP2UVRA, Metabolic Activation: NONE, Method: PREINCUBATION",inactive; negative
same,mutagenic call,"Test System: E.COLI, Strain/Indicator: WP2UVRA, Metabolic Activation: RAT LIVER S-9, PHENOBARBITAL AND BETA-NAPHTHOFLAVONE, Method: PREINCUBATION",inactive; negative
